Test results reported in ChEMBL document CHEMBL5038569, “Targeting RECQL5 Functions, by a Small Molecule, Selectively Kills Breast Cancer in Vitro and in Vivo” (J Med Chem, 2021).
The source made the active and inactive calls. The rule behind the calls is not given here.

Key:
[1] = Selectivity ratio of IC20 for cytotoxicity against RECQL5 knock out human MCF7 cells to IC20 for cytotoxicity against human MCF7 cells expressing RECQL5-WT; assay type: functional
[2] = Chronic toxicity in […] mouse assessed as effect on food/water uptake at 100 mg/kg, po administered as single dose via gavage measured for 30 days; assay type: organism-based; details: in vivo, 720 h, time 30 day
[3] = system: MCF7; assay: Induction of mitotic catastrophe phenotype in human cisplatin-resistant MCF7 cells assessed as micronucleus formation at 20 uM pretreated with cisplatin for 8 hrs followed by compound addition and measured after 24 hrs by immunofluorescence microscopic analysis; assay type: functional, cell-based
[4] = system: T47D; assay: Induction of DNA damage in RECQL5 knock out human T47D cells assessed as double strand breaks by measuring increase in gamma-H2AX foci formation incubated for 24 hrs by immunofluorescence microscopic analysis; assay type: functional, cell-based
[5] = system: MCF7; assay: Cytotoxicity against human MCF7 cells with shRNA-mediated WRN depletion assessed as reduction in cell viability at 6 to 25 uM measured after 8 to 10 days by clonogenic survival assay; assay type: functional, cell-based; details: dose 6-25 µM, time 8-10 day
[6] = target: T1, DNA repair protein RAD51 homolog 1 (Homo sapiens) (UniProt Q06609); assay: Stabilization of RAD51 foci in human cisplatin-resistant MCF7 cells assessed as increase in RAD51 positive cells at 20 uM pretreated with cisplatin for 8 hrs followed by compound addition and measured after 24 hrs by immunofluorescence microscopic analysis; assay type: cell-based
T1 sequence (whole entry): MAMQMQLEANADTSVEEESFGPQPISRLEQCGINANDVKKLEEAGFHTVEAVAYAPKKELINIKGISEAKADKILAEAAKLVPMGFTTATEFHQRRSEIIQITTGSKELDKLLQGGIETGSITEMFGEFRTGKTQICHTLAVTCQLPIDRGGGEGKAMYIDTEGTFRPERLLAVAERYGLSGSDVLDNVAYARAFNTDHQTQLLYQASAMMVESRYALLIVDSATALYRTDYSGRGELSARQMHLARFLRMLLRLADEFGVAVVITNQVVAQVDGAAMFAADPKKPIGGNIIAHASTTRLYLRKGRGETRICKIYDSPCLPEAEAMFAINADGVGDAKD

[7] = Toxicity in nude mouse xenografted with human MCF7 cells assessed as morphological changes in spleen at 50 mg/kg, po administered via oral gavage and measured after 30 days; assay type: organism-based; details: in vivo, 720 h, time 30 day
[8] = system: MCF7; assay: Inhibition of homologous recombinant repair in RECQL5 knock out human MCF7 cells expressing SceGFP/iGFP mutants assessed as I-SceI induced generation of resected double stand breaks by measuring GFP-expressing cells at 10 uM measured after 48 hrs by flow cytometry analysis; assay type: functional, cell-based
[9] = system: MCF7; assay: Effect on homologous recombinant repair in human MCF7 cells expressing wild type RECQL5 assessed as accumulation of RAD50 protein on chromatin at 20 uM incubated for 4 to 24 hrs by Western blot analysis; assay type: functional, cell-based; details: time 4-24 hrs, TDE = time-dependent effect
[10] = system: MCF7; assay: Cytotoxicity against RECQL5 knock out human MCF7 cells assessed as cell growth inhibition measured after 72 hrs by MTT assay; assay type: functional; details: dose 6-50 µM
[11] = system: MDA-MB-231; assay: Induction of apoptosis in RECQL5 depleted human MDA-MB-231 cells assessed as cell death measured after 72 hrs by propidium iodide/RNase A staining based flow cytometric analysis; assay type: functional
[12] = Inhibition of ds-DNA dependent human RECQL5 ATPase activity measured after 60 mins by luciferin-based multiplate reader method
[13] = system: MCF7; assay: Induction of mitotic catastrophe phenotype in human MCF7 cells assessed as micronucleus formation at 20 uM pretreated with cisplatin for 8 hrs followed by compound addition and measured after 24 hrs by immunofluorescence microscopic analysis; assay type: functional, cell-based
[14] = system: MCF7; assay: Induction of cell sensitization to cisplatin in cisplatin-resistant human MCF-7 cells assessed as reduction in colony formation at 5 uM measured after 8 to 10 days by clonogenic survival assay; assay type: functional, cell-based; details: time 8-10 day
[15] = system: MCF7; assay: Induction of apoptosis in human MCF7 cells expressing wild type RECQL5 assessed as fold increase in cell death at 20 uM measured after 72 hrs by propidium iodide/RNase A staining based flow cytometric analysis relative to control; assay type: functional
[16] = Chronic toxicity in […] mouse assessed as change in behavior at 100 mg/kg, po administered as single dose via gavage measured for 30 days; assay type: organism-based; details: in vivo, 720 h, time 30 day
[17] = system: MCF7; assay: Induction of DNA damage in RECQL5 knock out human MCF7 cells assessed as double strand breaks by measuring increase in phosphorylation of p53 at S15 residue at 20 uM measured up to 24 hrs by Western blot analysis; assay type: functional, cell-based; details: time hrs <=24
[18] = system: MCF7; assay: Effect on NHEJ-mediated double strand break repair in RECQL5 knock out human MCF7 cells assessed as accumulation of DNA-dependent protein kinase on chromatin at 20 uM measured up to 24 hrs by Western blot analysis; assay type: cell-based; details: time hrs <=24
[19] = Selectivity ratio of IC20 for cytotoxicity against human MCF-10A cells expressing RECQL5 to IC20 for cytotoxicity against human MCF7 cells expressing RECQL5; assay type: toxicity, cell-based
[20] = system: MCF7; assay: Cytotoxicity against human MCF7 cells with shRNA-mediated RECQL1 depletion assessed as reduction in cell viability at 6 to 25 uM measured after 8 to 10 days by clonogenic survival assay; assay type: functional, cell-based; details: dose 6-25 µM, time 8-10 day
[21] = target: T1, DNA repair protein RAD51 homolog 1 (Homo sapiens); assay: Stabilization of RAD51 foci in human MCF7 cells assessed as increase in RAD51 positive cells at 20 uM pretreated with cisplatin for 8 hrs followed by compound addition and measured after 24 hrs by immunofluorescence microscopic analysis; assay type: cell-based
[22] = system: MDA-MB-231; assay: Cytotoxicity against ER/PR/HER2-negative human MDA-MB-231 cells expressing wild type RECQL5 and p53 mutant assessed as reduction in colony formation measured after 8 to 10 days by clonogenic survival assay; assay type: functional, cell-based; details: time 8-10 day
[23] = Inhibition of full length His-tagged human RECQL5 expressed in Escherichia coli incubated for 15 mins by fluorescence based assay
[24] = system: MCF7; assay: Effect on homologous recombinant repair in human MCF7 cells expressing wild type RECQL5 assessed as accumulation of MRE11 protein on chromatin at 20 uM incubated for 4 to 24 hrs by Western blot analysis; assay type: functional, cell-based; details: time 4-24 hrs, TDE = time-dependent effect
[25] = Chronic toxicity in […] mouse assessed as change in body weight at 100 mg/kg, po administered as single dose via gavage measured for 30 days; assay type: organism-based; details: in vivo, 720 h, time 30 day
[26] = system: MCF7; assay: Induction of cell sensitization to cisplatin in human MCF-7 cells assessed as reduction in colony formation at 5 uM measured after 8 to 10 days by clonogenic survival assay; assay type: functional, cell-based; details: time 8-10 day
[27] = system: MCF7; assay: Induction of apoptosis in human MCF7 cells expressing wild type RECQL5 assessed as increase in sub-G1 cell population measured after 72 hrs by propidium iodide/RNase A staining based flow cytometric analysis; assay type: functional; details: dose 2.5-20 µM
[28] = system: MCF7; assay: Reversal of RECQL5 knock out resistance phenotype in human MCF7 cells expressing RFP assessed as reduction in cell viability at 6 to 25 uM measured after 72 hrs by MTT assay; assay type: functional, cell-based; details: dose 6-25 µM
[29] = system: MCF7; assay: Stabilization of RECQL5-RAD51 complex in human MCF7 cells expressing wild type RECQL5 assessed as increase in accumulation of chromatin-bound RECQL5 and RAD51 at 20 uM measured after 4 to 24 hrs by Western blot analysis; assay type: cell-based; details: time 4-24 hrs, TDE = time-dependent effect

O=C(Nc1cc(C(F)(F)F)cc(C(F)(F)F)c1)N[C@@H](c1ccccc1)c1nnc(SCc2ccccc2)o1
selectivity ratio [1]: 2.7
Activity [2]: Non-Toxic
Activity [3]: Active
Activity [4]: inactive
Activity [5]: Active
Activity [6]: Active
Activity [7]: Non-Toxic
inhibition [8]: inactive
Activity [9]: Tde
IC20 [10]: 22.3 µM
Activity [11]: inactive
IC50 [12]: 23.9 µM
Activity [13]: Active
Activity [14]: Active
fold change (FC) [15]: 2.5
Activity [16]: Non-Toxic
Activity [17]: inactive
Activity [18]: inactive
selectivity ratio [19]: 4
Activity [20]: Active
Activity [21]: Active
Activity [22]: Active
IC50 [23]: 0.0463 µM
Activity [24]: Tde
Activity [25]: Non-Toxic
Activity [26]: Active
Activity [27]: Dose-Dependent Effect
Activity [28]: inactive
Activity [29]: Tde
